Measurements from patent US12404241B2 (Celgene Corporation, priority 2018, dated 2025).

Molecular target: T1, AR (Homo sapiens, UniProt P10275)
T1 construct: endogenous in cells; host or cells: VCaP cells
T1 sequence (P10275 1-920): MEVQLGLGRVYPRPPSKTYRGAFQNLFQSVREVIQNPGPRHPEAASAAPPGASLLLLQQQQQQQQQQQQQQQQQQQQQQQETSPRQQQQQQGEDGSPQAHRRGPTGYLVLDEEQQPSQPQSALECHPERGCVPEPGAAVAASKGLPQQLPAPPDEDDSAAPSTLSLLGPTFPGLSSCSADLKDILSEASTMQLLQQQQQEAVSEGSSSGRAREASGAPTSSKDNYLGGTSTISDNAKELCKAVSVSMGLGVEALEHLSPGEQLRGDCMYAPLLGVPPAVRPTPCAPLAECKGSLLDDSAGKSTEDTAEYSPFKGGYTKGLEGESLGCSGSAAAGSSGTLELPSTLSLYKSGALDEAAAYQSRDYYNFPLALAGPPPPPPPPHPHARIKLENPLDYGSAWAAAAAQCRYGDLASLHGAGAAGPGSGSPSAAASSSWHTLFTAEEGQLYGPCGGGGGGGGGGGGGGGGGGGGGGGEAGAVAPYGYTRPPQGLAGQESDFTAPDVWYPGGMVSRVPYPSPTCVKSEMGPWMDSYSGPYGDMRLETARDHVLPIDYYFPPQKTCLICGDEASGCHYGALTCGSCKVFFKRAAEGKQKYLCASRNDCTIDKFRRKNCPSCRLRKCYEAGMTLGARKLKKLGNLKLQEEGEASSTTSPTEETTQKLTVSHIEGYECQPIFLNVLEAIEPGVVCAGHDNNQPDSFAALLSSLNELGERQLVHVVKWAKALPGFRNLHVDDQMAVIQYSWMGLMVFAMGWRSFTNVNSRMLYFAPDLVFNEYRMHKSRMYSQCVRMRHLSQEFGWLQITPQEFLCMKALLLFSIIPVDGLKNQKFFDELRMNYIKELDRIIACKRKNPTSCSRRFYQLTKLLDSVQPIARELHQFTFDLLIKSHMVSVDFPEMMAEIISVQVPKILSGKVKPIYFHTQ
Assay: VCAP AR Degradation Assay
Assay type: cell-based
Settings: for Y (AR degradation efficiency, % of DMSO control): class symbols *; for DC50: class symbols A-C, read-out: DC50
Method in brief: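 VCaP cells treated 24 h at 37 °C with a 10-point 1:3 series (top 5 μM final; 0.1% DMSO control). Lysate AR measured by sandwich ELISA, normalized to DMSO as percent of control; DC50, EC50 and lowest AR level (Y) from four-parameter logistic fit.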

| SMILES | Y (AR degradation efficiency, % of DMSO control) | DC50 |
| --- | --- | --- |
| CC(F)(F)c1cc(N2C(=S)N(c3cnc(C#N)c(C(F)(F)F)c3)C(=O)C2(C)C)ccc1OCCN1CCN(CC(=O)Nc2cc(NC3CCC(=O)NC3=O)cc(F)c2F)CC1 (centres unmarked) [Example 82, 2-(4-(2-(4-(3-(6-cyano-5-(trifluoromethyl)pyridin-3-yl)-5,5-dimethyl-4-oxo-2-thioxoimidazolidin-1-yl)-2-(1,1-difluoroethyl)phenoxy)ethyl)piperazin-1-yl)-N-(5-(2,6-dioxopiperidin-3-ylamino)-2,3-difluorophenyl)acetamide] | * (0<Y<=25%) | < 100 nM |
| CCc1cc(N2C(=S)N(c3cnc(C#N)c(C(F)(F)F)c3)C(=O)C2(C)C)ccc1OCCN1CCN(CC(=O)Nc2cc(NC3CCC(=O)NC3=O)cc(F)c2F)C(C)(C)C1 (centres unmarked) [Example 83, 2-(4-(2-(4-(3-(6-cyano-5-(trifluoromethyl)pyridin-3-yl)-5,5-dimethyl-4-oxo-2-thioxoimidazolidin-1-yl)-2-ethylphenoxy)ethyl)-2,2-dimethylpiperazin-1-yl)-N-(5-(2,6-dioxopiperidin-3-ylamino)-2,3-difluorophenyl)acetamide] | * (0<Y<=25%) | < 100 nM |
| CC1(C)C(=O)N(c2cnc(C#N)c(C(F)(F)F)c2)C(=S)N1c1ccc(OCCN2CCN(CC(=O)Nc3cc(Cl)cc(NC4CCC(=O)NC4=O)c3)CC2)c(C2CC2)c1 (centres unmarked) [Example 84, N-(3-chloro-5-(2,6-dioxopiperidin-3-ylamino)phenyl)-2-(4-(2-(4-(3-(6-cyano-5-(trifluoromethyl)pyridin-3-yl)-5,5-dimethyl-4-oxo-2-thioxoimidazolidin-1-yl)-2-cyclopropylphenoxy)ethyl)piperazin-1-yl)acetamide] | * (0<Y<=25%) | < 100 nM |
| CCc1cc(N2C(=S)N(c3cnc(C#N)c(C(F)(F)F)c3)C(=O)C23CCC3)ccc1OCCN1CCN(CC(=O)Nc2cc(Cl)cc(NC3CCC(=O)NC3=O)c2)CC1 (centres unmarked) [Example 85, N-(3-chloro-5-(2,6-dioxopiperidin-3-ylamino)phenyl)-2-(4-(2-(4-(7-(6-cyano-5-(trifluoromethyl)pyridin-3-yl)-8-oxo-6-thioxo-5,7-diazaspiro[3.4]octan-5-yl)-2-ethylphenoxy)ethyl)piperazin-1-yl)acetamide] | * (0<Y<=25%) | < 100 nM |
| CC1(C)C(=O)N(c2cnc(C#N)c(C(F)(F)F)c2)C(=S)N1c1ccc(OCCN2CCN(CC(=O)Nc3cc(NC4CCC(=O)NC4=O)ccc3F)CC2)cc1 (centres unmarked) [Example 86, 2-(4-(2-(4-(3-(6-cyano-5-(trifluoromethyl)pyridin-3-yl)-5,5-dimethyl-4-oxo-2-thioxoimidazolidin-1-yl)phenoxy)ethyl)piperazin-1-yl)-N-(5-(2,6-dioxopiperidin-3-ylamino)-2-fluorophenyl)acetamide] | ** (25%<Y<=35%) | < 100 nM |
| CCc1cc(N2C(=S)N(c3ccc(C#N)c(C(F)(F)F)c3)C(=O)C2(C)C)ccc1OCCN1CCN(CC(=O)Nc2cc(Cl)cc(NC3CCC(=O)NC3=O)c2)[C@H](C)C1 (stereo partly drawn) [Example 87, N-(3-chloro-5-(2,6-dioxopiperidin-3-ylamino)phenyl)-2-((R)-4-(2-(4-(3-(4-cyano-3-(trifluoromethyl)phenyl)-5,5-dimethyl-4-oxo-2-thioxoimidazolidin-1-yl)-2-ethylphenoxy)ethyl)-2-methylpiperazin-1-yl)acetamide] | * (0<Y<=25%) | < 100 nM |
| CCc1cc(N2C(=S)N(c3ccc(C#N)c(C(F)(F)F)c3)C(=O)C2(C)C)ccc1CCCN1CCN(CC(=O)Nc2cc(F)cc(NC3CCC(=O)NC3=O)c2)CC1 (centres unmarked) [Example 88, 2-(4-(3-(4-(3-(4-cyano-3-(trifluoromethyl)phenyl)-5,5-dimethyl-4-oxo-2-thioxoimidazolidin-1-yl)-2-ethylphenyl)propyl)piperazin-1-yl)-N-(3-(2,6-dioxopiperidin-3-ylamino)-5-fluorophenyl)acetamide] | * (0<Y<=25%) | < 100 nM |
| CCc1cc(N2C(=S)N(c3ccc(C#N)c(C(F)(F)F)c3)C(=O)C2(C)C)ccc1CCCN1CCN(CC(=O)Nc2cc(Cl)cc(NC3CCC(=O)NC3=O)c2)CC1 (centres unmarked) [Example 89, N-(3-chloro-5-(2,6-dioxopiperidin-3-ylamino)phenyl)-2-(4-(3-(4-(3-(4-cyano-3-(trifluoromethyl)phenyl)-5,5-dimethyl-4-oxo-2-thioxoimidazolidin-1-yl)-2-ethylphenyl)propyl)piperazin-1-yl)acetamide] | * (0<Y<=25%) | < 100 nM |
| CCc1cc(N2C(=S)N(c3ccc(C#N)c(C(F)(F)F)c3)C(=O)C2(C)C)ccc1OCCN1CCN(CC(=O)Nc2cc(F)cc(NC3CCC(=O)NC3=O)c2)[C@H](C)C1 (stereo partly drawn) [Example 90, 2-((R)-4-(2-(4-(3-(4-cyano-3-(trifluoromethyl)phenyl)-5,5-dimethyl-4-oxo-2-thioxoimidazolidin-1-yl)-2-ethylphenoxy)ethyl)-2-methylpiperazin-1-yl)-N-(3-(2,6-dioxopiperidin-3-ylamino)-5-fluorophenyl)acetamide] | * (0<Y<=25%) | < 100 nM |
| CC1(C)C(=O)N(c2cnc(C#N)c(C(F)(F)F)c2)C(=S)N1c1ccc(OCCN2CCN(CC(=O)Nc3cc(Cl)cc(NC4CCC(=O)NC4=O)c3)CC2)c(CO)c1 (centres unmarked) [Example 91, N-(3-chloro-5-(2,6-dioxopiperidin-3-ylamino)phenyl)-2-(4-(2-(4-(3-(6-cyano-5-(trifluoromethyl)pyridin-3-yl)-5,5-dimethyl-4-oxo-2-thioxoimidazolidin-1-yl)-2-(hydroxymethyl)phenoxy)ethyl)piperazin-1-yl)acetamide] | *** (35%<Y<50%) | < 100 nM |
| CC(O)c1cc(N2C(=S)N(c3cnc(C#N)c(C(F)(F)F)c3)C(=O)C2(C)C)ccc1OCCN1CCN(CC(=O)Nc2cc(Cl)cc(NC3CCC(=O)NC3=O)c2)CC1 (centres unmarked) [Example 92, N-(3-chloro-5-(2,6-dioxopiperidin-3-ylamino)phenyl)-2-(4-(2-(4-(3-(6-cyano-5-(trifluoromethyl)pyridin-3-yl)-5,5-dimethyl-4-oxo-2-thioxoimidazolidin-1-yl)-2-(1-hydroxyethyl)phenoxy)ethyl)piperazin-1-yl)acetamide] | *** (35%<Y<50%) | 100 to 500 nM |
| CC(C)c1cc(N2C(=S)N(c3cnc(C#N)c(C(F)(F)F)c3)C(=O)C2(C)C)ccc1OCCN1CCN(CC(=O)Nc2cc(Cl)cc(NC3CCC(=O)NC3=O)c2)CC1 (centres unmarked) [Example 93, N-(3-chloro-5-(2,6-dioxopiperidin-3-ylamino)phenyl)-2-(4-(2-(4-(3-(6-cyano-5-(trifluoromethyl)pyridin-3-yl)-5,5-dimethyl-4-oxo-2-thioxoimidazolidin-1-yl)-2-isopropylphenoxy)ethyl)piperazin-1-yl)acetamide] | * (0<Y<=25%) | < 100 nM |
| CC(C)c1cc(N2C(=S)N(c3ccc(C#N)c(C(F)(F)F)c3)C(=O)C2(C)C)ccc1OCCN1CCN(CC(=O)Nc2cc(Cl)cc(NC3CCC(=O)NC3=O)c2)CC1 (centres unmarked) [Example 94, N-(3-chloro-5-(2,6-dioxopiperidin-3-ylamino)phenyl)-2-(4-(2-(4-(3-(4-cyano-3-(trifluoromethyl)phenyl)-5,5-dimethyl-4-oxo-2-thioxoimidazolidin-1-yl)-2-isopropylphenoxy)ethyl)piperazin-1-yl)acetamide] | ** (25%<Y<=35%) | 100 to 500 nM |
